Assay results reported in paper PMC10070635, “Targeting Enterococcus faecalis HMG-CoA reductase with a non-statin inhibitor” (Communications Biology, 2023).

Assays:
[1] = target: T1, Enterococcus faecalis HMG-CoA reductase (efHMGR) (Enterococcus faecalis, UniProt A0A4U3MLJ4); assay: X-ray co-crystal structure ([…] Å); format: binding
T1 construct: gene EY666_03235; C-terminal domain (residues 381-803) of the mvaE gene product, N-terminal 6X-His tag

[2] = target: T1, Enterococcus faecalis HMG-CoA reductase (efHMGR); assay: X-ray co-crystal structure ([…] Å); mevalonate oxidation enzyme assay with Ki (IC50 […]); format: biochemical
[3] = target: T1, Enterococcus faecalis HMG-CoA reductase (efHMGR); assay: mevalonate oxidation assay, NADPH absorbance at […] nm; […] inhibition at […]; format: biochemical
[4] = target: T1, Enterococcus faecalis HMG-CoA reductase (efHMGR); assay: X-ray crystal structure ([…] Å); format: binding

CC(C)(COP(=O)(O)OP(=O)(O)OC[C@H]1O[C@@H](n2cnc3c(N)ncnc32)[C@H](O)[C@@H]1OP(=O)(O)O)[C@@H](O)C(=O)NCCC(=O)NCCSC(=O)C[C@@](C)(O)CC(=O)O [HMG-CoA]
X-ray co-crystal structure (2.27 Å) [1]: HMG-CoA binds to the large domain of one monomer and NADP^+ to small domain of the other monomer

NC(=O)c1ccc[n+]([C@@H]2O[C@H](COP(=O)(O)OP(=O)(O)OC[C@H]3O[C@@H](n4cnc5c(N)ncnc54)[C@H](OP(=O)(O)O)[C@@H]3O)[C@@H](O)[C@H]2O)c1 [NADP+]
X-ray co-crystal structure (2.27 Å) [1]: NADP^+ is present in all the active sites and HMG-CoA in only one

CCCCc1ccc(NS(=O)(=O)c2ccc(O)c(C(=O)O)c2)cc1 [compound 315, 5-{[(4-butylphenyl)amino]sulfonyl}-2-hydroxybenzoic acid]
Ki [2]: 2000 nM

CC[C@H](C)C(=O)O[C@H]1C[C@@H](C)C=C2C=C[C@H](C)[C@H](CC[C@@H]3C[C@@H](O)CC(=O)O3)[C@H]21 [lovastatin]
inhibition at 50 µM [3]: 32%

C[C@@](O)(CCO)CC(=O)O [mevalonate]
X-ray crystal structure (2.27 Å) [4]: Density consistent with mevalonate is also found in one of the active sites.
